Data taken from patent publication US9055743B2, “Alpha, beta-unsaturated imines” (BAYER INTELLECTUAL PROPERTY GMBH, priority 2010, dated 2015).

Experiments:
Assay type in all cases: in vivo
[1] = system: greenhouse red spider mite (Tetranychus urticae); assay: Tetranychus test; OP-resistant (TETRUR spray treatment); conditions: 500 g/ha, spray, after 6 days; for pest or weed control at 500 g/ha: Tetranychus urticae, 144 h, read-out: activity (spider mites killed)
Method in brief: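 Bean leaf discs infested with all stages of OP-resistant Tetranychus urticae were sprayed with compound in acetone/DMF with alkylaryl polyglycol ether emulsifier, diluted in emulsifier-water. Mortality was scored after 6 days: 100% means all mites killed, 0% none.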

[2] = system: Lucilia cuprina larvae; assay: Lucilia cuprina test (LUCICU); conditions: 100 ppm, after 2 days
Method in brief: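 Horsemeat treated with compound (DMSO concentrate diluted in water) was populated with about 20 L. cuprina larvae. Percent kill was scored after 2 days, from 100% (all larvae dead) to 0% (none dead).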

[3] = system: larvae of the mustard beetle (Phaedon cochleariae); assay: Phaedon test (PHAECO spray treatment); conditions: 500 g/ha, spray, after 7 days; for pest or weed control at 500 g/ha: Phaedon cochleariae, 168 h, read-out: activity (beetle larvae killed)
Method in brief: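 Chinese cabbage leaf discs sprayed with compound formulated in acetone/dimethylformamide with alkylaryl polyglycol ether emulsifier, diluted in emulsifier-containing water to the desired concentration. After drying, discs were populated with mustard beetle larvae.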

[4] = system: Musca domestica; assay: Musca domestica test (MUSCDO); conditions: 100 ppm, after 2 days
Procedure: Musca domestica Test (MUSCDO)
Solvent: Dimethyl Sulphoxide
To produce a suitable preparation of active compound, 10 mg of active compound are mixed with 0.5 ml of dimethyl sulphoxide and the concentrate is diluted with water to the desired concentration. Vessels containing a sponge treated with the active compound preparation of the desired concentration are populated with adult Musca domestica.
After 2 days, the kill in % is determined 100% means that all flies have been killed; 0% means that none of the flies have been killed.

[5] = system: caterpillars of the army worm (Spodoptera frugiperda); assay: Spodoptera frugiperda test (SPODFR spray treatment); conditions: 500 g/ha, spray, after 7 days; for pest or weed control at 500 g/ha: Spodoptera frugiperda, 168 h, read-out: activity (caterpillars killed)
Method in brief: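 Maize leaf discs sprayed with compound formulated in acetone/dimethylformamide plus alkylaryl polyglycol ether emulsifier and diluted in water, then infested with Spodoptera frugiperda caterpillars once dry. Mortality scored after 7 days as % activity, where 100% means all caterpillars killed.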

[6] = system: Ctenocephalides felis; assay: Ctenocephalides felis oral test (CTECFE); conditions: 100 ppm in citrated cattle blood, after two days
Method in brief: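 About 20 unfed adult C. felis fed through a parafilm membrane on citrated cattle blood containing compound (DMSO stock diluted to the desired concentration). Kill (%) determined after two days; 100% = all fleas dead, 0% = none dead.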

[7] = system: Boophilus microplus; assay: Boophilus microplus test (BOOPMI injection); conditions: for activity (100% = none of the ticks has laid any fertile eggs): 20 μg/animal, injection into the abdomen, after 7 days
Method in brief: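 Ticks injected in the abdomen with compound in DMSO, then held in a climatized room. Effect scored after 7 days as % reduction in fertile egg laying, 100% meaning no fertile eggs.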

[8] = system: Culex quinquefasciatus; assay: whole plant or invertebrate; conditions: for knock-down activity: 100 mg/m^2, two hours after contact, exposition 30 minutes; for mortality at 100 mg/m2: Culex quinquefasciatus, read-out: activity (mortality in %)
Procedure: Culex Test (CULXFA Surface Treatment) Solvent: Acetone
To produce a suitable preparation of active compound, the active compound is dissolved in acetone (2 mg/ml). The active compound preparation is pipetted onto a glazed tile and, after drying, adult mosquitoes of the species Culex quinquefasciatus are placed onto the treated tile. The exposition time is 30 minutes.
Two hours after contact to the treated surface, the knock-down proportion of the test animals in % is determined.
24 hours after contact to the treated surface, the mortality in % is determined. Here, 100% means that all mosquitoes have been killed; 0% means that none of the mosquitoes has been killed.

[9] = system: cat fleas (Ctenocephalides felis, fully sensitive laboratory strain); assay: Contact test against fleas in-vitro (CTECFE contact); conditions: for activity against cat fleas: 500 g/ha, after 48 h
Method in brief: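 Test tubes coated from acetone solutions by rotation, top concentration 500 g/ha (500 μg/dm^2) on tube surface, serial 1:5 dilutions. 10-20 CO2-anesthetized adult fleas held at room temperature for 24 and 48 h. Activity scored versus acetone control: knock-down or death of all fleas = 100%.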

| SMILES | pest or weed control at 500 g/ha [1] [%] | activity (kill in %) [2] [%] | pest or weed control at 500 g/ha [3] [%] | activity (kill in %) [4] [%] | pest or weed control at 500 g/ha [5] [%] | activity (kill in %) [6] [%] | activity (100% = none of the ticks has laid any fertile eggs) [7] [%] | knock-down activity [8] [%] | mortality at 100 mg/m2 [8] [%] | activity against cat fleas [9] [%] | Kill rate in % after 2 days ([9]; active compound concentration 0.032 g/ha) [%] | Kill rate in % after 7 days ([7]; active compound concentration 0.16 μg/animal) [%] | activity (spider mites killed) [1] [%] | activity (beetle larvae killed) [3] [%] | activity (caterpillars killed) [5] [%] |
| --- | --- | --- | --- | --- | --- | --- | --- | --- | --- | --- | --- | --- | --- | --- | --- |
| Cc1ccc(N=C2C(=CSc3ccc(F)cc3)CCc3ccccc32)cc1 [Example 1-9] | 100 | 100 | 100 | 90 | 100 | 100 | 100 | 100 | 100 | 100 | 100 | – | – | – | – |
| Cc1ccc(N=C2C(=CSc3ccc(F)cc3)CCc3cc(F)ccc32)cc1 [Example 1-16] | 100 | 100 | 100 | 80 | 100 | 100 | 100 | 95 | 100 | 100 | – | 90 | – | – | – |
| Cc1ccc(N=C2C(=CSc3ccc(C)cc3)CCc3ccccc32)cc1 [Example 1-28] | – | 100 | – | 80 | – | 100 | 100 | 95 | – | 100 | – | – | 100 | 100 | 100 |
| Cc1ccc(N=C2C(=CSc3ccc(F)cc3)CSc3ccccc32)cc1 [Example 1-35] | 100 | 100 | 100 | – | 100 | 100 | 100 | – | 100 | 100 | – | – | – | – | – |
| Cc1ccc(N=C2C(=CSc3ccc(F)cc3)C(C)c3ccccc32)cc1 (stereo not drawn) [Example 1-57] | 100 | 100 | 100 | 85 | 100 | 100 | 100 | – | 100 | 100 | – | – | – | – | – |
